Values quoted from earlier work as cited in patent publication US12648892B2, “Emergency eye wash” (Lebrun Labs LLC, priority 2024, dated 2026).

What was measured:
eye = eye damage classification; cited from earlier work; further: key: GHS Category 1 (Chemicals that cause extreme and irreversible damage to the eye)
[1] = most extreme pH value found for each chemical; includes diluted chemicals; cited from earlier work

Structure (SMILES): Cc1ccccc1NC(=N)NC(=N)N [compound 92]
- in vivo GHS (eye): 1

Structure (SMILES): CCCCO [compound 15]
- in vivo GHS (eye): 1

Structure (SMILES): CC(C)(C)CC(C)(C)c1ccc(O)cc1 [compound 2]
- in vivo GHS (eye): 1

Structure (SMILES): O=S(=O)([O-])O.[Na+] [compound 65]
- in vivo GHS (eye): 1
- pH [1]: <1.0

Structure (SMILES): O=c1[nH]sc2ccccc12 [compound 89]
- in vivo GHS (eye): 1

Structure (SMILES): OC1CCCCC1 [compound 47]
- in vivo GHS (eye): 1
- pH [1]: 6.5

Structure (SMILES): O=C(O)Cc1cccc2ccccc12 [compound 43]
- in vivo GHS (eye): 1
- pH [1]: 5.0

Structure (SMILES): CCC[CH2][Sn]([CH2]CCC)([CH2]CCC)[O][Sn]([CH2]CCC)([CH2]CCC)[CH2]CCC [compound 9]
- in vivo GHS (eye): 1

Structure (SMILES): CC(C)(C)c1ccc(O)c(O)c1 [compound 96]
- in vivo GHS (eye): 1

Structure (SMILES): CCCCCCCCCCCCCCCC[n+]1ccccc1.[Br-] [compound 84]
- in vivo GHS (eye): 1

Structure (SMILES): C=CC(=O)OCCOC [compound 79]
- in vivo GHS (eye): 1

Structure (SMILES): CO[Si](CCCNCCN)(OC)OC [compound 95]
- in vivo GHS (eye): 1

Structure (SMILES): O=C([O-])c1c(Cl)c(Cl)c(Cl)c(Cl)c1-c1c2cc(Br)c(=O)c(Br)c-2oc2c(Br)c([O-])c(Br)cc12.[Na+].[Na+] [compound 34]
- in vivo GHS (eye): 1

Structure (SMILES): CC(C=O)Cc1ccc(C(C)(C)C)cc1 (stereo not shown) [compound 38]
- in vivo GHS (eye): 1

Structure (SMILES): Oc1ccc(Cl)cc1Cc1ccccc1 [compound 82]
- in vivo GHS (eye): 1

Structure (SMILES): O=C(OC(C(=O)O)C(OC(=O)c1ccccc1)C(=O)O)c1ccccc1 (stereo not shown) [compound 87]
- in vivo GHS (eye): 1

Structure (SMILES): O=C([O-])c1ccccc1O.[Na+] [compound 13]
- in vivo GHS (eye): 1

Structure (SMILES): [Na+].[OH-] [compound 56]
- in vivo GHS (eye): 1
- pH [1]: 14.0

Structure (SMILES): CCC(C)(C)C(=O)O [compound 94]
- in vivo GHS (eye): 1

Structure (SMILES): CC(C)(O)CCC(C)(C)O [compound 68]
- in vivo GHS (eye): 1

Structure (SMILES): CCCOC(=O)C(C)O (stereo not shown) [compound 101]
- in vivo GHS (eye): 1

Structure (SMILES): Nc1ccc(F)cc1 [compound 50]
- in vivo GHS (eye): 1
- pH [1]: 7.4

Structure (SMILES): CC(=O)O [compound 11]
- in vivo GHS (eye): 1

Structure (SMILES): COC(=O)CS [compound 93]
- in vivo GHS (eye): 1

Structure (SMILES): CCCCCCCCCCCC(=O)[O-].[K+] [compound 59]
- in vivo GHS (eye): 1
- pH [1]: 10.5

Structure (SMILES): CSCCC(NC(C)=O)C(=O)O (racemic) [compound 88]
- in vivo GHS (eye): 1

Structure (SMILES): CCCCCCCC[N+](CCCCCCCC)(CCCCCCCC)CCCCCCCC.[Br-] [compound 66]
- in vivo GHS (eye): 1
- pH [1]: 3.9

Structure (SMILES): CCCCCCCCCCCC[N+](C)(C)CCOc1ccccc1.[Br-] [compound 26]
- in vivo GHS (eye): 1

Structure (SMILES): CCN(CC)CCCC(C)Nc1c2ccc(Cl)cc2nc2ccc(OC)cc12 (stereo not shown) [compound 3]
- in vivo GHS (eye): 1

Structure (SMILES): O=C=Nc1ccc(Cl)c(Cl)c1 [compound 107]
- in vivo GHS (eye): 1

Structure (SMILES): C=CC(=O)OCCOCCOCCOCCOC(=O)C=C [compound 42]
- in vivo GHS (eye): 1
- pH [1]: 5.2

Structure (SMILES): CCCCCCCCN [compound 55]
- in vivo GHS (eye): 1
- pH [1]: 11.8

Structure (SMILES): O=C(O)c1ccccc1 [compound 32]
- in vivo GHS (eye): 1

Structure (SMILES): C=CC(=O)OCCO [compound 81]
- in vivo GHS (eye): 1

Structure (SMILES): CCCCCCCCCCCCOS(=O)(=O)[O-].[Na+] [compound 7]
- in vivo GHS (eye): 1

Structure (SMILES): C1CCOC1 [compound 48]
- in vivo GHS (eye): 1
- pH [1]: 8.0

Structure (SMILES): C[Si](C)(CCCN)O[Si](C)(C)CCCN [compound 91]
- in vivo GHS (eye): 1

Structure (SMILES): CCCCCCCCCCCCCCCCCC[N+](C)(C)C [compound 60]
- in vivo GHS (eye): 1
- pH [1]: 4.2

Structure (SMILES): CCCCCCCCCCCCCCCC[N+](C)(C)C.[Br-] [compound 28]
- in vivo GHS (eye): 1

Structure (SMILES): CCCCCCCCCCCCCCCCCC[N+](C)(C)CCCCCCCCCCCCCCCCCC [compound 39]
- in vivo GHS (eye): 1
- pH [1]: 5.5

Structure (SMILES): OCCCCCCCCCl [compound 69]
- in vivo GHS (eye): 1

Structure (SMILES): CC(O)C(=O)O (stereo not shown) [compound 17]
- in vivo GHS (eye): 1

Structure (SMILES): CCCCCCCCCCCC(=O)O [compound 8]
- in vivo GHS (eye): 1

Structure (SMILES): CCN(CC)CCC#N [compound 108]
- in vivo GHS (eye): 1

Structure (SMILES): Oc1ccc2ccc(O)cc2c1 [compound 99]
- in vivo GHS (eye): 1

Structure (SMILES): CCCCC(CC)COC(=O)CC(C(=O)OCC(CC)CCCC)S(=O)(=O)[O-].[Na+] (stereo not shown) [compound 58]
- in vivo GHS (eye): 1
- pH [1]: 6.5

Structure (SMILES): CCN(CC)CCO [compound 53]
- in vivo GHS (eye): 1
- pH [1]: 11.5

Structure (SMILES): CCCCOCCO [compound 46]
- in vivo GHS (eye): 1
- pH [1]: 7.0

Structure (SMILES): Cc1c(O)cccc1O [compound 100]
- in vivo GHS (eye): 1

Structure (SMILES): O=C(O)c1ccc(O)cc1O [compound 64]
- in vivo GHS (eye): 1
- pH [1]: 3.0

Structure (SMILES): O=C([O-])C(=O)[O-].[Na+].[Na+] [compound 4]
- in vivo GHS (eye): 1

Structure (SMILES): CCCCCCCCCCCCCCCC[N+](C)(C)C.[Cl-] [compound 5]
- in vivo GHS (eye): 1

Structure (SMILES): O=C(O)C(Cl)(Cl)Cl [compound 57]
- in vivo GHS (eye): 1
- pH [1]: <1.0

Structure (SMILES): O=C1C2CC=CCC2C(=O)N1SC(Cl)(Cl)Cl (stereo not shown) [compound 1]
- in vivo GHS (eye): 1

Structure (SMILES): O=C(O)CO [compound 6]
- in vivo GHS (eye): 1

Structure (SMILES): O=S1(=O)OC(c2cc(Br)c(O)c(Br)c2)(c2cc(Br)c(O)c(Br)c2)c2c(Br)c(Br)c(Br)c(Br)c21 [compound 90]
- in vivo GHS (eye): 1

Structure (SMILES): CC(C)(O)C(=O)O [compound 51]
- in vivo GHS (eye): 1
- pH [1]: 1.0

Structure (SMILES): Nc1cccc(N)c1 [compound 18]
- in vivo GHS (eye): 1

Structure (SMILES): CCOC(=O)C(C)(C)O [compound 83]
- in vivo GHS (eye): 1

Structure (SMILES): CCO[Si](CCCN)(OCC)OCC [compound 52]
- in vivo GHS (eye): 1
- pH [1]: 11.0

Structure (SMILES): O=C(O)CCC(=O)C(=O)O [compound 49]
- in vivo GHS (eye): 1
- pH [1]: 1.5

Structure (SMILES): [Na+].c1nc[n-]n1 [compound 105]
- in vivo GHS (eye): 1

Structure (SMILES): CCCCCCCCCCCC[N+](C)(C)CC(O)CS(=O)(=O)[O-] (stereo not shown) [compound 71]
- in vivo GHS (eye): 1

Structure (SMILES): OCc1ccccc1 [compound 16]
- in vivo GHS (eye): 1

Structure (SMILES): C#CC(C)(O)CC (stereo not shown) [compound 76]
- in vivo GHS (eye): 1

Structure (SMILES): N#CSc1ccc(N)c([N+](=O)[O-])c1 [compound 106]
- in vivo GHS (eye): 1

Structure (SMILES): O=S(=O)(Cl)c1ccccc1 [compound 80]
- in vivo GHS (eye): 1

Structure (SMILES): CCCCCCCCCCCC[N+](C)(C)[O-] [compound 62]
- in vivo GHS (eye): 1
- pH [1]: 9.0

Structure (SMILES): CC(CN1c2ccccc2Sc2ccccc21)N(C)C.Cl (stereo not shown) [compound 21]
- in vivo GHS (eye): 1

Structure (SMILES): c1c[nH]cn1 [compound 54]
- in vivo GHS (eye): 1
- pH [1]: 10.5

Structure (SMILES): c1ccncc1 [compound 20]
- in vivo GHS (eye): 1

Structure (SMILES): CCCCCCCCCCCCCCCC[n+]1ccccc1.O.[Cl-] [compound 35]
- in vivo GHS (eye): 1
